Earlier results as cited in patent publication US20180008587A1, “THIOHYDANTOIN ANDROGEN RECEPTOR ANTAGONISTS FOR THE TREATMENT OF CANCER” (Jaressen Pharmaceutica NV, priority 2016, published 2018).

Molecular target: T1, T877A AR mutant (Homo sapiens, UniProt P10275, T878A)
T1 sequence (P10275 1-920 T878A): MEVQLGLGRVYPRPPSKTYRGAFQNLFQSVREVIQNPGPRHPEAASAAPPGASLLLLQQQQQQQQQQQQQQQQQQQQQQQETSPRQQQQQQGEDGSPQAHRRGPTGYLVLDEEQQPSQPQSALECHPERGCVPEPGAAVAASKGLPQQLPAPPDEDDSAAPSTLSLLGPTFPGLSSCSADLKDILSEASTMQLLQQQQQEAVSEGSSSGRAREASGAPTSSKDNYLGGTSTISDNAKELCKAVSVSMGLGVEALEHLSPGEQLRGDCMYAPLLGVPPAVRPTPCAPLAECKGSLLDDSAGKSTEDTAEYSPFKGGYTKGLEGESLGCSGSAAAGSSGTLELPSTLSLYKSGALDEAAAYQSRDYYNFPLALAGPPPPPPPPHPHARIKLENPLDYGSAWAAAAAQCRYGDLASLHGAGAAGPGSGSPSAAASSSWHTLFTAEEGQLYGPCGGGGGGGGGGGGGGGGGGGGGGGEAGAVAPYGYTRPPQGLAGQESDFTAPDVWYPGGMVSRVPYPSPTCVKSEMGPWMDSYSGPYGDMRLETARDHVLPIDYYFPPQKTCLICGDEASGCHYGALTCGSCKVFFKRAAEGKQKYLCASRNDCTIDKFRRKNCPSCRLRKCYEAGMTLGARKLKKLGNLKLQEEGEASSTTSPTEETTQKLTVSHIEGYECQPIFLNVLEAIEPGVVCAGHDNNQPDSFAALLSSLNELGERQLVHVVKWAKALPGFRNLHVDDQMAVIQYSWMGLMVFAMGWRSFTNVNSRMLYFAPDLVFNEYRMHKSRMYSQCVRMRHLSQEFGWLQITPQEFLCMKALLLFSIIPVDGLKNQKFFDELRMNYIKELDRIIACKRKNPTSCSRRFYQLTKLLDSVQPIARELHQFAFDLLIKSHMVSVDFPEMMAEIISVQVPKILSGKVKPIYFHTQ
Conditions: cited from earlier work

In the case of `CC(C)(O)C(=O)Nc1ccc([N+](=O)[O-])c(C(F)(F)F)c1` [hydroxyflutamide], the “activity in T877A AR mutant” value is given as “act as AR agonists”.
